Results from patent publication US6348309B1, “Process for inactivating viruses in blood and blood products” (priority 1989, dated 2002).
“Also recorded” adds a separate entry of the source.

What was measured:
[1] = system: Eastern equine encephalomyelitis (EEE) virus; details: cited from earlier work
[2] = 1 to 2 mg/kg of body weight; cited from earlier work
adenovirus = test: Photodynamic treatment of adenovirus with pre-incubation in the dark, titrated on FL cells (Example 7); assay type: cell-based; details: TB instead of MB, same conditions

Cc1cc2nc3ccc(N(C)C)cc3[s+]c2cc1N.[Cl-] [TB, toluidine blue]
inactivation of EEE virus in plasma [1]: effectively inactivated; also recorded: failed to inactivate the virus completely | side effects in therapeutic use [2]: without any significant side effects | effect of photodynamic treatment on virus titer (adenovirus): not reduced
